Melting point and IC50 data for 26 compounds are collected here from patent publication US8735414B2 (priority 2009, dated 2014).

SMILES strings stand for the structures.

The test system of series [1] is bicistronic HCV replicon (replicon RNA, GenBank Accession No. AJ242654). The series can be described thus: HCV Replicon Assay. Conditions: Hepatitis C virus, 72 h, read-out: Replicon IC50. The series is classed as cell-based.

`C[C@H](NS(=O)(=O)c1cnc(-c2c(C#N)c3ccc(CC(F)F)cc3n2CC2CC2)nc1)C(F)(F)F` [compound 622, 2-[3-cyano-1-(cyclopropylmethyl)-6-(2,2-difluoroethyl)-1H-indol-2-yl]-N-[(2S)-1,1,1-trifluoropropan-2-yl]pyrimidine-5-sulfonamide]: the melting point – broadly, the temperature, or range, at which the solid turns liquid – was in the range of 195 to 205 °C. Besides, the IC50 (usually the concentration needed to halve the response being measured) in series [1] is under 500 nM.
Consider `CC(C)(C)NS(=O)(=O)c1ccc(-c2c(C#N)c3ccc(OC(F)F)cc3n2-c2ccccc2)nc1` [compound 624, N-tert-butyl-6-[3-cyano-6-(difluoromethoxy)-1-phenyl-1H-indol-2-yl]pyridine-3-sulfonamide], for which the melting point was in the range of 216 to 218 °C. The IC50 in series [1] is under 500 nM.
In the case of `Cc1cc(F)c2c(C#N)c(-c3ccc(S(=O)(=O)N[C@@H](C)C(F)(F)F)cn3)n(C3CCCC3)c2c1` [compound 625, 6-(3-cyano-1-cyclopentyl-4-fluoro-6-methyl-1H-indol-2-yl)-N-[(2S)-1,1,1-trifluoropropan-2-yl]pyridine-3-sulfonamide], the melting point is 207 to 211 °C. Further, in series [1], the IC50 was under 500 nM.
On to `Cc1cc(F)c2c(C#N)c(-c3ccc(S(=O)(=O)NC(C)(C)C(F)(F)F)cn3)n(C3CCCC3)c2c1` [compound 626, 6-(3-cyano-1-cyclopentyl-4-fluoro-6-methyl-1H-indol-2-yl)-N-(1,1,1-trifluoro-2-methylpropan-2-yl)pyridine-3-sulfonamide], for which the melting point fell in the range of 218 to 223 °C. Moreover, the half-maximal inhibitory concentration (IC50) in series [1] was under 500 nM.
On to `Cc1cc(F)c2c(C#N)c(-c3ccc(S(=O)(=O)N[C@@H](C)C(F)(F)F)cn3)n(C3CCC3)c2c1` [compound 627, 6-(3-cyano-1-cyclobutyl-4-fluoro-6-methyl-1H-indol-2-yl)-N-[(2S)-1,1,1-trifluoropropan-2-yl]pyridine-3-sulfonamide], for which the melting point fell in the range of 205 to 210 °C. For the same compound, in series [1], the IC50 is under 500 nM.
`Cc1cc(F)c2c(C#N)c(-c3ccc(S(=O)(=O)NC4(C(F)(F)F)CC4)cn3)n(C3CCCC3)c2c1` [compound 628, 6-(3-cyano-1-cyclopentyl-4-fluoro-6-methyl-1H-indol-2-yl)-N-[1-(trifluoromethyl)cyclopropyl]pyridine-3-sulfonamide] showed a melting point of 242 to 246 °C. Also, the IC50 in series [1] is under 500 nM.
Take `Cc1cc(F)c2c(C#N)c(-c3ccc(S(=O)(=O)NC4(C(F)(F)F)CC4)cn3)n(C3CCC3)c2c1` [compound 629, 6-(3-cyano-1-cyclobutyl-4-fluoro-6-methyl-1H-indol-2-yl)-N-[1-(trifluoromethyl)cyclopropyl]pyridine-3-sulfonamide]: the melting point was 241 to 246 °C. For the same compound, the IC50 in series [1] was 2000 to 5000 nM.
As to `C[C@H](NS(=O)(=O)c1ccc(-c2c(C#N)c3cc(F)c(C4CC4)cc3n2C2CCC2)nc1)C(F)(F)F` [compound 630, 6-(3-cyano-1-cyclobutyl-6-cyclopropyl-5-fluoro-1H-indol-2-yl)-N-[(2S)-1,1,1-trifluoropropan-2-yl]pyridine-3-sulfonamide], the melting point was 201 to 203 °C. The IC50 in series [1] was under 500 nM.
As for `C[C@@H](NS(=O)(=O)c1ccc(-c2c(C#N)c3cc(F)c(C4CC4)cc3n2C2CCC2)nc1)C(F)(F)F` [compound 631, 6-(3-cyano-1-cyclobutyl-6-cyclopropyl-5-fluoro-1H-indol-2-yl)-N-[(2R)-1,1,1-trifluoropropan-2-yl]pyridine-3-sulfonamide], the melting point lay within 190 to 194 °C. In addition, the IC50 in series [1] is under 500 nM.
On the same counts, the results for `CCc1cc2c(cc1F)c(C#N)c(-c1ccc(S(=O)(=O)N[C@H](C)C(F)(F)F)cn1)n2C1CCCC1` [compound 632, 6-(3-cyano-1-cyclopentyl-6-ethyl-5-fluoro-1H-indol-2-yl)-N-[(2R)-1,1,1-trifluoropropan-2-yl]pyridine-3-sulfonamide] are 205.5 to 206 °C and under 500 nM.
`CCc1cc2c(cc1F)c(C#N)c(-c1ccc(S(=O)(=O)N[C@@H](C)C(F)(F)F)cn1)n2C1CCCC1` [compound 633, 6-(3-cyano-1-cyclopentyl-6-ethyl-5-fluoro-1H-indol-2-yl)-N-[(2S)-1,1,1-trifluoropropan-2-yl]pyridine-3-sulfonamide]: the melting point lay in the range of 201 to 202 °C. In addition, in series [1], the IC50 is under 500 nM.
`N#Cc1c(-c2ccc(S(=O)(=O)NC(CF)CF)cn2)n(-c2ncccn2)c2cc(OC(F)F)ccc12` [compound 635, 6-[3-cyano-6-(difluoromethoxy)-1-(pyrimidin-2-yl)-1H-indol-2-yl]-N-(1,3-difluoropropan-2-yl)pyridine-3-sulfonamide] registered a melting point of 173 to 176 °C. Further, in series [1], the IC50 is under 500 nM.
On to `CCc1cc2c(cc1F)c(C#N)c(-c1ccc(S(=O)(=O)NC3(C(F)(F)F)CC3)cn1)n2C1CCCC1` [compound 637, 6-(3-cyano-1-cyclopentyl-6-ethyl-5-fluoro-1H-indol-2-yl)-N-[1-(trifluoromethyl)cyclopropyl]pyridine-3-sulfonamide], for which the melting point is 198 to 199 °C. Besides, in series [1], the IC50 was under 500 nM.
For `CCc1cc2c(cc1F)c(C#N)c(-c1ncc(S(=O)(=O)NC(CF)CF)cn1)n2C1CCCC1` [compound 638, 2-(3-cyano-1-cyclopentyl-6-ethyl-5-fluoro-1H-indol-2-yl)-N-(1,3-difluoropropan-2-yl)pyrimidine-5-sulfonamide], the melting point lay within 184 to 185 °C. Moreover, the IC50 in series [1] was under 500 nM.
For the compound `CCc1cc2c(cc1F)c(C#N)c(-c1ccc(S(=O)(=O)NC(CF)CF)cn1)n2C1CCCC1` [compound 639, 6-(3-cyano-1-cyclopentyl-6-ethyl-5-fluoro-1H-indol-2-yl)-N-(1,3-difluoropropan-2-yl)pyridine-3-sulfonamide], the melting point lay within 179.5 to 180 °C. In addition, in series [1], the IC50 is under 500 nM.
On the same counts, the results for `CCc1cc2c(cc1F)c(C#N)c(-c1ccc(S(=O)(=O)N[C@@H](C)C(F)(F)F)cn1)n2C1CCC1` [compound 640, 6-(3-cyano-1-cyclobutyl-6-ethyl-5-fluoro-1H-indol-2-yl)-N-[(2S)-1,1,1-trifluoropropan-2-yl]pyridine-3-sulfonamide] are 205 to 206 °C and under 500 nM.
`CCc1cc2c(cc1F)c(C#N)c(-c1ccc(S(=O)(=O)N[C@H](C)C(F)(F)F)cn1)n2C1CCC1` [compound 641, 6-(3-cyano-1-cyclobutyl-6-ethyl-5-fluoro-1H-indol-2-yl)-N-[(2R)-1,1,1-trifluoropropan-2-yl]pyridine-3-sulfonamide]: the melting point is 199 to 199.5 °C. Further, in series [1], the IC50 was under 500 nM.
Consider `CCc1cc2c(cc1F)c(C#N)c(-c1ccc(S(=O)(=O)NC3(C(F)(F)F)CC3)cn1)n2C1CCC1` [compound 642, 6-(3-cyano-1-cyclobutyl-6-ethyl-5-fluoro-1H-indol-2-yl)-N-[1-(trifluoromethyl)cyclopropyl]pyridine-3-sulfonamide], for which the melting point lay in the range of 203 to 203.5 °C. Further, in series [1], the IC50 was under 500 nM.
In the case of `Cc1cc2c(cc1F)c(C#N)c(-c1ccc(S(=O)(=O)NC(C)(C)C)cn1)n2C1CCCC1` [compound 643, N-tert-butyl-6-(3-cyano-1-cyclopentyl-5-fluoro-6-methyl-1H-indol-2-yl)pyridine-3-sulfonamide], the melting point is 208 to 209 °C. In series [1], the IC50 was under 500 nM.
In the case of `Cc1cc2c(cc1F)c(C#N)c(-c1ccc(S(=O)(=O)NC3(C)CC3)cn1)n2C1CCCC1` [compound 645, 6-(3-cyano-1-cyclopentyl-5-fluoro-6-methyl-1H-indol-2-yl)-N-(1-methylcyclopropyl)pyridine-3-sulfonamide], the melting point fell in the range of 208 to 209 °C. The IC50 in series [1] is under 500 nM.
Take `Cc1cc2cc(-c3ccc(S(=O)(=O)N[C@@H](C)C(F)(F)F)cn3)n(C3CCC3)c2cc1OC(F)F` [compound 646, 6-[1-cyclobutyl-6-(difluoromethoxy)-5-methyl-1H-indol-2-yl]-N-[(2S)-1,1,1-trifluoropropan-2-yl]pyridine-3-sulfonamide]: the melting point fell in the range of 151 to 153 °C. Also, in series [1], the IC50 is 2000 to 5000 nM.
Compound `CCc1cc2c(C#N)c(-c3ccc(S(=O)(=O)N[C@@H](C)C(F)(F)F)cn3)n(C3CCC3)c2cc1OC(F)F` [compound 647, 6-[3-cyano-1-cyclobutyl-6-(difluoromethoxy)-5-ethyl-1H-indol-2-yl]-N-[(2S)-1,1,1-trifluoropropan-2-yl]pyridine-3-sulfonamide] yielded a melting point of 160 to 162 °C. Moreover, the IC50 in series [1] lay in the range of 500 to 2000 nM.
Compound `C[C@@H](NS(=O)(=O)c1ccc(-c2c(C#N)c3cc(F)c(OC(F)F)cc3n2C2CCC2)nc1)C(F)(F)F` [compound 648, 6-[3-cyano-1-cyclobutyl-6-(difluoromethoxy)-5-fluoro-1H-indol-2-yl]-N-[(2R)-1,1,1-trifluoropropan-2-yl]pyridine-3-sulfonamide] gave a melting point of 173 to 175 °C. Besides, the IC50 in series [1] is under 500 nM.
Consider `C[C@@H](NS(=O)(=O)c1ccc(-c2c(C#N)c3ccc(OC(F)F)cc3n2-c2ccc(F)cc2)nc1)C(F)(F)F` [compound 649, 6-[3-cyano-6-(difluoromethoxy)-1-(4-fluorophenyl)-1H-indol-2-yl]-N-[(2R)-1,1,1-trifluoropropan-2-yl]pyridine-3-sulfonamide], for which the melting point was 199 to 203 °C. For the same compound, the IC50 in series [1] is under 500 nM.
`Cc1cc2c(cc1F)c(C#N)c(-c1ccc(S(=O)(=O)NC(C)(C)C)cn1)n2C1CCC1` [compound 651, N-tert-butyl-6-(3-cyano-1-cyclobutyl-5-fluoro-6-methyl-1H-indol-2-yl)pyridine-3-sulfonamide] displayed a melting point of 223 to 228 °C. The IC50 in series [1] was under 500 nM.
For `Cc1c(F)cc2c(C#N)c(-c3ccc(S(=O)(=O)N[C@H](C)C(F)(F)F)cn3)n(C3CCCC3)c2c1F` [compound 653, 6-(3-cyano-1-cyclopentyl-5,7-difluoro-6-methyl-1H-indol-2-yl)-N-[(2R)-1,1,1-trifluoropropan-2-yl]pyridine-3-sulfonamide], in that order: 212 to 217 °C and under 500 nM.
